# Experimental data from patent publication US9359311B2, “Substituted aromatic oligomers” (NEUROSCIOS GMBH, priority 2011, dated 2016).
# Entries after “also recorded” stand apart in the source; their conditions may differ.
# Tests used:
# [1] = target: T1, Human Aβ38, Aβ40 and Aβ42 (Homo sapiens, UniProt P05067); test: Human Aβ38, Aβ40 and Aβ42 in SDS brain homogenate fraction of hAPPSL Tg mice after 90 days treatment; format: in vivo, mouse; conditions: twice daily i.p., p-FTAA 1 or 10 mg/kg/day, P9707_003 10 mg/kg/day
# T1 construct: from tissue; host or cells: CSF and left brain hemisphere (SDS fraction) of transgenic hAPPSL mice
# Description: (§1) Vehicle: Phosphate Buffered Saline (PBS; 6.7 mM PO4, 155 mM NaCl, pH=7.3-7.5) (BioWhittaker PBS from Lonza).
# (§2) Test item (T.I.): p-FTAA and P9707_003 diluted in vehicle from stock solution in deionized water (10 mg/ml).
# (§3) Tg hAPPSL: Transgenic hAPPSL mice over-expressing hAPP(751) under the control of the murine Thy-1 promoter with a C57BL/6xDBA background.
# (§4) Human Aβ38, Aβ40 and Aβ42 were determined in homogenates of the left brain hemispheres and in CSF samples of all Tg animals by an immunosorbent assay from Mesoscale Discovery
# 48 hAPP Tg mice plus 4 reserves allocated to 4 different treatment groups were treated with either vehicle only (control), p-FTAA or P9707_003. As an additional control, 12 nTg littermates of the hAPPSL mice (plus 1 reserve) were treated with vehicle only. Starting at 6.5 months of age, female hAPPSL mice were treated with vehicle only, p-FTAA (dosage: 1 or 10 mg/kg/day) or P9707_003 (dosage: 10 mg/kg/day) for 90 days. […]
# (§5) In the brain homogenate SDS fraction and in CSF of each Tg mouse, human Aβ38, Aβ40 and Aβ42 levels were measured with a Aβ-kit from Mesoscale Discovery. Aβ levels were evaluated in comparison to a peptide standard as pg/mg brain (wet weight) or pg/ml CSF.
# Descriptive statistical analysis was performed on all evaluated parameters. […] Group differences between all Tg groups were calculated by a parametric ANOVA followed by a Bonferroni post test.
# biotinylated Aβ1-42 = target: T2, biotinylated Aβ1-42 (Homo sapiens, UniProt P05067); test: Inhibition of Abeta oligomerisation (biotinylated Aβ1-42, neutravidin plate, streptavidin-HRP); format: biochemical; conditions: inhibition of Aβ1-42 aggregation, approximately 12 nM Aβ1-42, PBS pH 7.4, 2% DMSO, 30 min RT
# T2 construct: To assure monomerisation of biotinylated Aβ1-42 (Anaspec #23523-0.5) the peptide was thoroughly monomerised; purchased Anaspec 23523-0.5
# [2] = test system: PHF-tau doubly-phosphorylated at Thr231 and Ser235; test: Phosphorylation of Tau in neurites crossing amyloid plaques, AT180 IHC, hAPPSL Tg mice; format: in vivo, mouse
# Description: as §1
# Test Item (T.I.): p-FTAA and P9707_003, diluted in vehicle from stock solution in deionized water (10 mg/ml).
# as §3
# (§6) 48 hAPP Tg mice plus 4 reserves allocated to 4 different treatment groups were treated with either vehicle only (control), p-FTAA or P9707_003. As an additional control, 12 nTg littermates of the hAPPSL mice (plus 1 reserve) were treated with vehicle only. Starting at 6.5 months of age, female hAPPSL mice were treated with vehicle only, p-FTAA (dosage: 1 or 10 mg/kg/day) or P9707_003 (dosage: 10 mg/kg/day) for 90 days. The Test Items (T.I.s) were administered in Vehicle. Compound and vehicle were administered twice daily i.p. for 90 days. Tg hAPPSL mice with a C57BL/6xDBA background and corresponding nTg littermates at an age of 6.5 months (+2 weeks) were randomly assigned to the treatment groups.
# Histological evaluations were performed with six randomly chosen cryo-frozen brain hemispheres of treatment groups PBS Control, p-FTAA 1 mg/kg/day, p-FTAA 10 mg/kg/day, and P9707_003 10 mg/kg/day.
# 15 cryo-sections per level (altogether 5 levels), each 10 μm thick (Leica CM 3050S) were sagittally cut. Brain levels were chosen according to the morphology atlas “The Mouse Brain” from Paxinos and Franklin (2nd edition). The cutting of the five levels started with a random slice, then sampling was continued uniformly and systematically, always retaining 15 slices per level in series and discarding 100 μm in between the levels.
# TAU phosphorylation was visualized immunohistochemically using the AT180 antibody. Clone AT180 recognizes PHF-tau doubly-phosphorylated at Thr231 and Ser235.
# For determination of amyloid depositions 5 slices (1 from each level) per brain were stained and screened. From each slice five images were captured from 5 defined areas in the brain. The order of these positions reflect the time course of plaque deposition in the APPsl model, which starts in the frontal cortex (P11) at the age of 3 months and then spreads to the medial (P12) and dorsal cortex over age. At six months of age, plaques can be found in the medial cortex (P13), from then plaque load spreads into the hippocampal formation with hot spots in the subiculum (P14) and the dentate gyrus (P15) at the age of nine months.
# Mosaic images for plaque load quantification including the whole cortex and hippocampus were recorded on a Zeiss AxioImager.Z1 microscope using high aperture lenses and an AxioVision 4.8 software driven AxioCam MRm (10× lens, 1× optocoupler). Plaques for AT180 quantifcation were imaged with a 20× lens. Detail images for qualitative figures are 40× image stacks collapsed to 2D by the extended depth of field function of AxioVision software.
# Descriptive statistical analysis was performed on all evaluated parameters, Kolmogorov Smirnov test were performed to test normal distribution of data. Data in graphs are represented as mean±SEM.
# prion = conditions: Ref: JBC doi: 10.1074/jbc.M112.355958; cited from earlier work
# [3] = target: T1, Human Aβ38, Aβ40 and Aβ42; test: Human Aβ38, Aβ40 and Aβ42 in CSF of hAPPSL Tg mice after 90 days treatment (immunosorbent assay); format: in vivo, mouse; conditions: twice daily i.p., hAPPSL Tg mice, p-FTAA 1 or 10 mg/kg/day, P9707_003 10 mg/kg/day
# Description: as §1, §2, §3, §4
# as §6, with “(±2” for “(+2”
# as §5
# Descriptive statistical analysis was performed on all evaluated parameters. All data were represented as mean±standard error of mean (SEM). Grubb's test was used to detect outliers. Normality distribution of the values was tested with Kolmogorov Smirnov normality distribution test. Group differences between all Tg groups were calculated by a parametric ANOVA followed by a Bonferroni post test.
# T1 sequence (P05067 672-713 limits assumed): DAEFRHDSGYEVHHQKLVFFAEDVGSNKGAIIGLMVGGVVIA
# T2 sequence (P05067 672-713 limits assumed): as above
structure (smiles),measurement,setting,value
"O=C(O)Cc1cc(-c2ccc(C(=O)O)s2)sc1-c1ccc(-c2sc(-c3ccc(C(=O)O)s3)cc2CC(=O)O)s1 [p-FTAA, reference compound]","aggregated Aβ38, Aβ40 and Aβ42 in SDS fraction of brain homogenate",[1],significant SDS soluble Aβ lowering effect; also recorded: reduced
same,IC50,biotinylated Aβ1-42,5.01 µM
same,AT180 load,"[2]; 1 mg p-FTAA treatment, position 4",significantly reduced
same,AT180 load,"[2]; 10 mg p-FTAA treatment, positions 4 and 5",highly significant reduction
same,"AT180 IR in plaques of younger history of origin (hippocampal formation, subiculum, dentate gyrus)","[2]; 90 days i.p., hAPPSL Tg mice",drastically reduced
same,anti-prion potential,prion,pronounced anti-prion potential
same,CSF Aβ levels,[3],reduced
